Results as given in patent US20080227774A1, “5,5-DISUBSTITUTED-INDOLIZINONE COMPOUNDS” (priority 2007, published 2008).

Molecular target: NS5B polymerase (Hepatitis C virus genotype 1b, UniProt P26663)
Assay: HCV polymerase inhibition assay (FlashPlate)
Type: biochemical
Details: 20 nM enzyme, 75 min at 28° C.
Experimental: Compounds were tested for HCV polymerase inhibition. Assays were performed in a 96-well streptavidin-coated FlashPlate using 20 nM enzyme, 0.5 μCi of [α-^33P]GTP, 0.6 μM GTP, and 250 nM 5′biotinylated oligo (rG13)/poly rC in 20 mM Tris-HCl, pH 7.5, 5 mM MgCl2, 5 mM dithiothreitol, 0.1 g/L bovine serum albumin, and 100 U/ml RNAse inhibitor. The reaction was stopped by aspiration after 75 min at 28° C. and the plate was washed several times. After washing and drying the plate, incorporated radioactivity was counted using a Microbeta scintillation counter. IC50 values were calculated relative to the uninhibited control and inhibition data were fitted to a 4-parameter IC50 equation. For very potent inhibitors, the data were fitted to a tight binding quadratic equation to obtain IC50 values.

NS5B polymerase, sequence (P26663 2420-3010): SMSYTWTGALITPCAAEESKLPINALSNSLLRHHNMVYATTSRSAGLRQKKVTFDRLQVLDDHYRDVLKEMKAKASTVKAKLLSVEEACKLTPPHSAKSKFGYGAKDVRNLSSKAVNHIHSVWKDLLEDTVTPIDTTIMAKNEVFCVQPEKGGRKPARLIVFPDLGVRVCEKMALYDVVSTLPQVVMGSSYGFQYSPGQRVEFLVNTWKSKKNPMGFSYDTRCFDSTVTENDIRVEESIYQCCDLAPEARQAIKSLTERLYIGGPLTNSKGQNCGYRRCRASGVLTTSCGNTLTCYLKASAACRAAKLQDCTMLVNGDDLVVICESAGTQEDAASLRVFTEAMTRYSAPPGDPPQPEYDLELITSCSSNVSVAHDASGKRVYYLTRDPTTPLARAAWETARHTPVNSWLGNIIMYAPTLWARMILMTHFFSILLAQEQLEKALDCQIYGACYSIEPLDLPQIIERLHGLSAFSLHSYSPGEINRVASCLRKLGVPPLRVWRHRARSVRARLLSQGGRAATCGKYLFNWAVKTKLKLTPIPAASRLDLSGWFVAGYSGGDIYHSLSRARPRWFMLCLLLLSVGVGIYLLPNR

IC50 | SMILES
< 50 µM | CC(C)CCC1(C)C(=O)C(C2=Nc3ccccc3S(=O)(=O)N2)=C(O)c2cccn21 (stereo not shown) [Example 1, 7-(1,1-Dioxo-1,2-dihydro-1λ^6-benzo[1,2,4]thiadiazin-3-yl)-8-hydroxy-5-methyl-5-(3-methylbutyl)indolizin-6-one]
< 50 µM | CC(C)CCC1(C)C(=O)C(C2=NS(=O)(=O)c3cc(NS(C)(=O)=O)ccc3N2)=C(O)c2cccn21 (stereo not shown) [Example 2, N-{3-[8-Hydroxy-5-methyl-5-(3-methylbutyl)-6-oxo-5,6-dihydroindolizin-7-yl]-1,1-dioxo-1,2-dihydro-1λ^6-benzo[1,2,4]thiadiazin-7-yl}methanesulfonamide]
< 50 µM | C[C@]1(Cc2ccc(F)cc2)C(=O)C(C2=NS(=O)(=O)c3cc(NS(C)(=O)=O)ccc3N2)=C(O)c2cccn21 [Example 3, N-{3-[5-(S)-(4-Fluoro-benzyl)-8-hydroxy-5-methyl-6-oxo-5,6-dihydro-indolizin-7-yl]-1,1-dioxo-1,4-dihydro-1λ^6-benzo[1,2,4]thiadiazin-7-yl}-methanesulfonamide]
< 50 µM | CC1(Cc2ccc(F)c(Cl)c2)C(=O)C(C2=NS(=O)(=O)c3cc(NS(C)(=O)=O)ccc3N2)=C(O)c2cccn21 (stereo not shown) [Example 4, N-{3-[5-(3-Chloro-4-fluoro-benzyl)-8-hydroxy-5-methyl-6-oxo-5,6-dihydro-indolizin-7-yl]-1,1-dioxo-1,4-dihydro-1λ^6-benzo[1,2,4]thiadiazin-7-yl}-methanesulfonamide]
